Results: US20200231638A1, “STABILIZED ANTI-MICROBIAL PEPTIDES” (priority 2015, published 2020)
Bridge positions count the residues as written; N and C are the ends. Square brackets hold non-standard residues; d marks the D form. Ends that are not written are not given here. Peptide text beside a SMILES is read from it. R8 = C=CCCCCCC[C@@](C)(N)C(=O)O; S5 = C=CCCC[C@](C)(N)C(=O)O; Nle = CCCC[C@H](N)C(=O)O

How the values were obtained:
B. cereus = assay type: cell-based, Bacillus cereus
Outline: (§1)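 Microdilution MIC test in polyanion-depleted MHB, with a final inoculum of 5×10^5 CFU/ml and 20-24 h incubation at 37° C.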

P. aeruginosa = assay type: cell-based, Pseudomonas aeruginosa
Outline: as §1

human red blood cells = assay type: cell-based; conditions: red cells of human, 1 h, 25
Outline: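 Hemolysis expressed as absorbance of released hemoglobin (570 nm) normalized between untreated and 1% Triton-X100 controls, with MHC taken as peptide concentration giving under 1% release. Peptide dilutions were exposed for 1 h at 37° C to a 1% (v/v) suspension of washed human red cells in PBS.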

S. aureus = assay type: cell-based, Staphylococcus aureus
Outline: as §1

E. coli = assay type: cell-based, Escherichia coli
Outline: as §1

MIC B. cereus (B. cereus) [µg/mL] | MIC P. aeruginosa (P. aeruginosa) [µg/mL] | MIC S. aureus (S. aureus) [µg/mL] | MIC E. coli (E. coli) [µg/mL] | Compound | % Hemolysis at 25 μg/ml (human red blood cells) [%]
3.1 | 3.1 | 1.6 | 1.6 | CCCC[C@@H]1NC(=O)[C@H]([C@@H](C)CC)NC(=O)[C@@](C)(NC(=O)CNC(=O)[C@@H](NC(=O)[C@H](Cc2ccccc2)NC(=O)[C@H](C)NC(=O)[C@H](CCCCN)NC(=O)CNC(=O)[C@H](Cc2ccccc2)NC(=O)[C@H](CCCCN)NC(=O)[C@H](CCCCN)NC(=O)[C@H](C)NC(=O)[C@H](CO)NC(=O)[C@H](Cc2c[nH]cn2)NC(=O)[C@H](CC(C)C)NC(=O)[C@H](Cc2ccccc2)NC(=O)[C@H](CCCCN)NC(=O)CNC(=O)[C@@H](NC(=O)CN)[C@@H](C)CC)C(C)C)CCCC=CCCC[C@@](C)(C(N)=O)NC(=O)[C@H](CC(N)=O)NC1=O [Mag(i + 4)18, GIGKFLHSAKKFGKAFVGXIBNX] (H-GIGKFLHSAKKFGKAFVG[S5]I[Nle]N[S5]-NH2; staple 19-23) | 96.5
3.1 | 3.1 | 12.5 | 3.1 | CCCC[C@H](NC(=O)[C@@H](NC(=O)[C@H](CCC(=O)O)NC(=O)CNC(=O)[C@@H](NC(=O)[C@H](Cc1ccccc1)NC(=O)[C@H](C)NC(=O)[C@H](CCCCN)NC(=O)CNC(=O)[C@H](Cc1ccccc1)NC(=O)[C@H](CCCCN)NC(=O)[C@H](CCCCN)NC(=O)[C@]1(C)CCCC=CCCCCCC[C@@](C)(NC(=O)CN)C(=O)NCC(=O)N[C@@H](CCCCN)C(=O)N[C@@H](Cc2ccccc2)C(=O)N[C@@H](CC(C)C)C(=O)N[C@@H](Cc2c[nH]cn2)C(=O)N[C@@H](CO)C(=O)N1)C(C)C)[C@@H](C)CC)C(=O)N[C@@H](CC(N)=O)C(=O)N[C@@H](CO)C(N)=O [Mag(i + 7)1] (H-G[R8]GKFLHS[S5]KKFGKAFVGEI[Nle]NS-NH2; staple 2-9 (inferred); N-terminus and C-terminus assumed) | 49.9
6.2 | 3.1 | 6.2 | 3.1 | GWGSFFKKAAHVGKHVGKAALTHYL-NH2 [Pleurocidin-NH2, reference compound] | 0.5
3.1 | 3.1 | 3.1 | 3.1 | CCCC[C@H](NC(=O)[C@@H](NC(=O)[C@H](CCC(=O)O)NC(=O)CNC(=O)[C@]1(C)CCCC=CCCCCCC[C@@](C)(NC(=O)[C@H](C)NC(=O)[C@H](CO)NC(=O)[C@H](Cc2c[nH]cn2)NC(=O)[C@H](CC(C)C)NC(=O)[C@H](Cc2ccccc2)NC(=O)[C@H](CCCCN)NC(=O)CNC(=O)[C@@H](NC(=O)CN)[C@@H](C)CC)C(=O)N[C@@H](CCCCN)C(=O)N[C@@H](Cc2ccccc2)C(=O)NCC(=O)N[C@@H](CCCCN)C(=O)N[C@@H](C)C(=O)N[C@@H](Cc2ccccc2)C(=O)N1)[C@@H](C)CC)C(=O)N[C@@H](CC(N)=O)C(=O)N[C@@H](CO)C(N)=O [Mag(i + 7)9] (H-GIGKFLHSA[R8]KFGKAF[S5]GEI[Nle]NS-NH2; staple 10-17 (inferred); N-terminus and C-terminus assumed) | 94.6
3.1 | 3.1 | 6.2 | 1.6 | CCCC[C@H](NC(=O)[C@]1(C)CCCC=CCCC[C@](C)(NC(=O)[C@H](C)NC(=O)[C@H](CCCCN)NC(=O)CNC(=O)[C@H](Cc2ccccc2)NC(=O)[C@H](CCCCN)NC(=O)[C@H](CCCCN)NC(=O)[C@H](C)NC(=O)[C@H](CO)NC(=O)[C@H](CCCCN)NC(=O)[C@H](CC(C)C)NC(=O)[C@H](Cc2ccccc2)NC(=O)[C@H](CCCCN)NC(=O)CNC(=O)[C@@H](NC(=O)CN)[C@@H](C)CC)C(=O)N[C@@H](C(C)C)C(=O)NCC(=O)N[C@@H](CCC(=O)O)C(=O)N1)C(=O)N[C@@H](CC(N)=O)C(=O)N[C@@H](CO)C(N)=O [Mag(i + 4)15(H7K), GIGKFLKSAKKFGKAXVGEXBNS] (H-GIGKFLKSAKKFGKA[S5]VGE[S5][Nle]NS-NH2; staple 16-20; N-terminus and C-terminus assumed) | 3.1

Second part, the compound before the results:

Compound | MIC B. cereus (B. cereus) [µg/mL] | MIC P. aeruginosa (P. aeruginosa) [µg/mL] | MIC S. aureus (S. aureus) [µg/mL] | MIC E. coli (E. coli) [µg/mL] | % Hemolysis at 25 μg/ml (human red blood cells) [%]
CCCC[C@H](NC(=O)[C@@H](NC(=O)[C@H](CCC(=O)O)NC(=O)CNC(=O)[C@@H](NC(=O)[C@H](Cc1ccccc1)NC(=O)[C@H](C)NC(=O)[C@]1(C)CCCC=CCCC[C@](C)(NC(=O)[C@H](C)NC(=O)[C@H](CO)NC(=O)[C@H](Cc2c[nH]cn2)NC(=O)[C@H](CC(C)C)NC(=O)[C@H](Cc2ccccc2)NC(=O)[C@H](CCCCN)NC(=O)CNC(=O)[C@@H](NC(=O)CN)[C@@H](C)CC)C(=O)N[C@@H](CCCCN)C(=O)N[C@@H](Cc2ccccc2)C(=O)NCC(=O)N1)C(C)C)[C@@H](C)CC)C(=O)N[C@@H](CC(N)=O)C(=O)N[C@@H](CO)C(N)=O [Mag(i + 4)9] (H-GIGKFLHSA[S5]KFG[S5]AFVGEI[Nle]NS-NH2; staple 10-14) | 12.5 | >50 | >50 | 6.2 | 66.9
CCCC[C@H](NC(=O)[C@]1(C)CCCC=CCCC[C@](C)(NC(=O)[C@H](C)NC(=O)[C@H](CCCCN)NC(=O)[C@H](CCCCN)NC(=O)[C@H](Cc2ccccc2)NC(=O)[C@H](CCCCN)NC(=O)[C@H](CCCCN)NC(=O)[C@H](C)NC(=O)[C@H](CO)NC(=O)[C@H](Cc2c[nH]cn2)NC(=O)[C@H](CC(C)C)NC(=O)[C@H](Cc2ccccc2)NC(=O)[C@H](CCCCN)NC(=O)CNC(=O)[C@@H](NC(=O)CN)[C@@H](C)CC)C(=O)N[C@@H](C(C)C)C(=O)NCC(=O)N[C@@H](CCC(=O)O)C(=O)N1)C(=O)N[C@@H](CC(N)=O)C(=O)N[C@@H](CO)C(N)=O [Mag(i + 4)15(G13K), GIGKFLHSAKKFKKAXVGEXBNS] (H-GIGKFLHSAKKFKKA[S5]VGE[S5][Nle]NS-NH2; staple 16-20) | >50 | 12.5 | >50 | 3.1 | 1.8
CCCC[C@H](NC(=O)[C@@H](NC(=O)[C@H](CCC(=O)O)NC(=O)CNC(=O)[C@@H](NC(=O)[C@H](Cc1ccccc1)NC(=O)[C@H](C)NC(=O)[C@H](CCCCN)NC(=O)CNC(=O)[C@H](Cc1ccccc1)NC(=O)[C@H](CCCCN)NC(=O)[C@H](CCCCN)NC(=O)[C@H](C)NC(=O)[C@H](CO)NC(=O)[C@H](Cc1c[nH]cn1)NC(=O)[C@H](CC(C)C)NC(=O)[C@]1(C)CCCC=CCCC[C@](C)(N)C(=O)N[C@@H]([C@@H](C)CC)C(=O)NCC(=O)N[C@@H](CCCCN)C(=O)N1)C(C)C)[C@@H](C)CC)C(=O)N[C@@H](CC(N)=O)C(=O)N[C@@H](CO)C(N)=O [Mag(i + 4)0, XIGKXLHSAKKFGKAFVGEIBNS] (H-[S5]IGK[S5]LHSAKKFGKAFVGEI[Nle]NS-NH2; staple 1-5) | 12.5 | 50 | >50 | 3.1 | 4.8
CCCC[C@H](NC(=O)[C@]1(C)CCCC=CCCC[C@](C)(NC(=O)[C@H](C)NC(=O)[C@H](CCCCN)NC(=O)CNC(=O)[C@H](Cc2ccccc2)NC(=O)[C@H](CCCCN)NC(=O)[C@H](CCCCN)NC(=O)[C@H](C)NC(=O)[C@H](CO)NC(=O)[C@H](Cc2c[nH]cn2)NC(=O)[C@H](CC(C)C)NC(=O)[C@H](Cc2ccccc2)NC(=O)[C@H](CCCCN)NC(=O)[C@H](CCC(=O)O)NC(=O)[C@@H](NC(=O)CN)[C@@H](C)CC)C(=O)N[C@@H](C(C)C)C(=O)NCC(=O)N[C@@H](CCC(=O)O)C(=O)N1)C(=O)N[C@@H](CC(N)=O)C(=O)N[C@@H](CO)C(N)=O [Mag(i + 4)15(G3E), GIEKFLHSAKKFGKAXVGEXBNS] (H-GIEKFLHSAKKFGKA[S5]VGE[S5][Nle]NS-NH2; staple 16-20) | 12.5 | 12.5 | 50 | 3.1 | 3.9
CC[C@H](C)[C@H](NC(=O)CN)C(=O)NCC(=O)N[C@@H](CCCCN)C(=O)N[C@@H](Cc1ccccc1)C(=O)N[C@@H](CC(C)C)C(=O)N[C@@H](Cc1c[nH]cn1)C(=O)N[C@@H](CO)C(=O)N[C@@H](C)C(=O)N[C@@H](CCCCN)C(=O)N[C@@H](CCCCN)C(=O)N[C@@H](Cc1ccccc1)C(=O)NCC(=O)N[C@@H](CCCCN)C(=O)N[C@@H](C)C(=O)N[C@@]1(C)CCCC=CCCC[C@@](C)(C(=O)N[C@@H](CCC(=O)O)C(=O)N[C@@H](CC(N)=O)C(=O)N[C@@H](CO)C(N)=O)NC(=O)[C@H](CCC(=O)O)NC(=O)CNC(=O)[C@H](C(C)C)NC1=O [Mag(i + 4)15(B21E), GIGKFLHSAKKFGKAXVGEXENS] (H-GIGKFLHSAKKFGKA[S5]VGE[S5]ENS-NH2; staple 16-20) | >50 | >50 | >50 | 25 | 0.8
CCCC[C@H](NC(=O)[C@@H](NC(=O)[C@H](CCC(=O)O)NC(=O)[C@]1(C)CCCC=CCCC[C@](C)(NC(=O)CNC(=O)[C@H](Cc2ccccc2)NC(=O)[C@H](CCCCN)NC(=O)[C@H](CCCCN)NC(=O)[C@H](C)NC(=O)[C@H](CO)NC(=O)[C@H](Cc2c[nH]cn2)NC(=O)[C@H](CC(C)C)NC(=O)[C@H](Cc2ccccc2)NC(=O)[C@H](CCCCN)NC(=O)CNC(=O)[C@@H](NC(=O)CN)[C@@H](C)CC)C(=O)N[C@@H](C)C(=O)N[C@@H](Cc2ccccc2)C(=O)N[C@@H](C(C)C)C(=O)N1)[C@@H](C)CC)C(=O)N[C@@H](CC(N)=O)C(=O)N[C@@H](CO)C(N)=O [Mag(i + 4)13] (H-GIGKFLHSAKKFG[S5]AFV[S5]EI[Nle]NS-NH2; staple 14-18) | 3.1 | 6.2 | 6.2 | 3.1 | 59.7
